For orientation: MIC means the lowest concentration found to suppress growth. Low readings indicate greater potency, high ones weaker potency. By ED50 is commonly meant the midpoint of the dose-response relation.

Molecules are shown by their SMILES. Values after ≈ are worked out from the molar mass of the structure shown. A value given as a limit tells only on which side of the number the result lay.

Type in all cases: functional
The test system of assay [1] is Staphylococcus aureus. The assay can be described thus: Antibacterial activity against […] Staphylococcus aureus ATCC 29213 after 24 to 48 hrs by agar dilution method. Background: In agar dilution, organisms are placed on agar that contains the substance at set levels.
The test system of assay [2] is Staphylococcus aureus. The assay can be described thus: Antibacterial activity against […] Staphylococcus aureus ATCC 33591 after 24 to 48 hrs by agar dilution method.
For assay [3], the system named is Staphylococcus aureus. Description: Antibacterial activity against Staphylococcus aureus CMCC (B) 26003 after 24 to 48 hrs by agar dilution method.
Assay [4] relates to Bacillus subtilis. Description: Antibacterial activity against Bacillus subtilis CMCC (B) 63501 after 24 to 48 hrs by agar dilution method.
In assay [5] the test system is Escherichia coli. The assay can be described thus: Antibacterial activity against Escherichia coli CMCC (B) 44102 after 24 to 48 hrs by agar dilution method.
Assay [6] concerns Staphylococcus aureus. Description: Antibacterial activity against […] Staphylococcus aureus ATCC 29213 at 320 ug/ml after 24 to 36 hrs by oxford cup assay. Conditions: read-out: DIZ.
Assay [7] concerns Staphylococcus aureus. Description: Antibacterial activity against […] Staphylococcus aureus ATCC 29213 at 160 ug/ml after 24 to 36 hrs by oxford cup assay. Conditions: read-out: DIZ.
Assay [8] deals with Staphylococcus aureus. Description: Antibacterial activity against […] Staphylococcus aureus ATCC 33591 at 320 ug/ml after 24 to 36 hrs by oxford cup assay. Conditions: read-out: DIZ.
Assay [9] deals with Staphylococcus aureus. The assay can be described thus: Antibacterial activity against […] Staphylococcus aureus ATCC 33591 at 160 ug/ml after 24 to 36 hrs by oxford cup assay. Conditions: read-out: DIZ.
In assay [10] the test system is Staphylococcus aureus. Description: Antibacterial activity against Staphylococcus aureus CMCC (B) 26003 at 320 ug/ml after 24 to 36 hrs by oxford cup assay. Conditions: read-out: DIZ.
The test system of assay [11] is Staphylococcus aureus. Description: Antibacterial activity against Staphylococcus aureus CMCC (B) 26003 at 160 ug/ml after 24 to 36 hrs by oxford cup assay. Conditions: read-out: DIZ.
Assay [12] relates to Bacillus subtilis. The assay can be described thus: Antibacterial activity against Bacillus subtilis CMCC (B) 63501 at 320 ug/ml after 24 to 36 hrs by oxford cup assay. Particulars: read-out: DIZ.
Assay [13] concerns Bacillus subtilis. The assay can be described thus: Antibacterial activity against Bacillus subtilis CMCC (B) 63501 at 160 ug/ml after 24 to 36 hrs by oxford cup assay. Particulars: read-out: DIZ.
Assay [14] relates to Escherichia coli. The assay can be described thus: Antibacterial activity against Escherichia coli CMCC (B) 44102 at 320 ug/ml after 24 to 36 hrs by oxford cup assay. Conditions: read-out: DIZ.
Assay [15] concerns Escherichia coli. The assay can be described thus: Antibacterial activity against Escherichia coli CMCC (B) 44102 at 160 ug/ml after 24 to 36 hrs by oxford cup assay. Conditions: read-out: DIZ.
The subject of assay [16] is Staphylococcus aureus. Description: Bactericidal activity against Staphylococcus aureus CMCC (B) 26003 after 1 to 24 hrs by time-kill assay.
Assay [17] concerns Staphylococcus aureus. The assay can be described thus: Bactericidal activity against Staphylococcus aureus CMCC (B) 26003 at 6 times MIC after 4 hrs by time-kill assay relative to control.
For assay [18], the system named is Staphylococcus aureus. Description: Bactericidal activity against Staphylococcus aureus CMCC (B) 26003 assessed as bacterial level at MIC after 1 to 24 hrs by time-kill assay.
Assay [19] concerns Staphylococcus aureus. The assay can be described thus: Bactericidal activity against […] Staphylococcus aureus ATCC 29213 after 1 to 24 hrs by time-kill assay.
In assay [20] the test system is Staphylococcus aureus. The assay can be described thus: Antibacterial activity against […] Staphylococcus aureus ATCC 29213 in iv dosed Balb/c mouse systemic infection model assessed as increase in mouse survival after 7 days. Conditions: for ED50: ATCC 29213, iv, 168 h.
For assay [21], the system named is Staphylococcus aureus. The assay can be described thus: Ratio of MIC for […] Staphylococcus aureus ATCC 29213 to MIC for Staphylococcus aureus CMCC (B) 26003.

In the case of `C=C[C@]1(C)C[C@@H](OC(=O)CSCCN(CC)CC)[C@]2(C)[C@H](C)CC[C@]3(CCC(=O)[C@H]32)[C@@H](C)[C@@H]1O` [TIAMULIN], the MIC against Staphylococcus aureus [1] was determined as 0.25 µg/mL (≈ 0.506 µM); against Staphylococcus aureus [2] it was 0.125 µg/mL (≈ 0.253 µM); against Staphylococcus aureus [3] it was 0.0625 µg/mL (≈ 0.127 µM); in the assay with Bacillus subtilis [4] it was 2 µg/mL (≈ 4.05 µM); in the assay with Escherichia coli [5] it was 4 µg/mL (≈ 8.1 µM). Besides, the zone of inhibition at 320 µg/mL in the assay on Staphylococcus aureus [6] amounted to 29.4 mm; with Staphylococcus aureus [8], 33.9 mm; in the assay on Staphylococcus aureus [10], 37.9 mm; in the assay with Bacillus subtilis [12] it was 21.3 mm; in the assay on Escherichia coli [14] it was 13.3 mm. The zone of inhibition at 160 µg/mL in the assay with Staphylococcus aureus [7] came out at 22.9 mm; in the assay on Staphylococcus aureus [9], 20.2 mm; with Staphylococcus aureus [11], 26.1 mm; in the assay on Bacillus subtilis [13] it was 17.4 mm; in the assay on Escherichia coli [15], 9.42 mm. Further, the Activity result is “Dose-dependent effect” in the assay on Staphylococcus aureus [16], 3 - 4 log10CFU/ml in the assay with Staphylococcus aureus [18], “Dose-dependent effect” with Staphylococcus aureus [19] and “Dose-dependent effect” in the assay on Staphylococcus aureus [20]. The “fold change (FC)” value in the assay on Staphylococcus aureus [17] is on record as over 6. Further, in the assay on Staphylococcus aureus [20], the ED50 stood at 5.94 mg/kg.
With `C=C[C@]1(C)C[C@@H](OC(=O)CSc2nc(N)cc(N)n2)[C@]2(C)[C@H](C)CC[C@]3(CCC(=O)[C@H]32)[C@@H](C)[C@@H]1O`, the MIC against Staphylococcus aureus [1] was found to be 0.125 µg/mL (≈ 0.249 µM); against Staphylococcus aureus [2] it was 0.0625 µg/mL (≈ 0.124 µM); against Staphylococcus aureus [3], 0.0625 µg/mL (≈ 0.124 µM); against Bacillus subtilis [4], 2 µg/mL (≈ 3.98 µM); against Escherichia coli [5], 2 µg/mL (≈ 3.98 µM). The zone of inhibition at 320 µg/mL in the assay with Staphylococcus aureus [6] was found to be 33.5 mm; in the assay on Staphylococcus aureus [8], 35.8 mm; in the assay on Staphylococcus aureus [10], 38.3 mm; in the assay with Bacillus subtilis [12], 21.9 mm; in the assay with Escherichia coli [14], 14.2 mm. Also, the zone of inhibition at 160 µg/mL in the assay on Staphylococcus aureus [7] came out at 24.7 mm; with Staphylococcus aureus [9], 24.2 mm; in the assay with Staphylococcus aureus [11] it was 25.8 mm; in the assay on Bacillus subtilis [13], 17.4 mm; in the assay with Escherichia coli [15], 11.4 mm. Further, the Activity entry was “Dose-dependent effect” with Staphylococcus aureus [16], 3 - 4 log10CFU/ml with Staphylococcus aureus [18], “Dose-dependent effect” in the assay on Staphylococcus aureus [19] and “Dose-dependent effect” with Staphylococcus aureus [20]. Besides, the “fold change (FC)” value in the assay on Staphylococcus aureus [17] was over 6. For the same molecule, the Ratio in the assay with Staphylococcus aureus [21] is given as 2. Besides, the ED50 with Staphylococcus aureus [20] was 4.22 mg/kg.

(Values after ChEMBL document CHEMBL4002584, “Synthesis and antibacterial activities of novel pleuromutilin derivatives with a substituted pyrimidine moiety” (2017).)
